Assay results from the NIST ThermoML archive (doi:10.1016/j.jct.2014.03.005).
“And” between values parts separate entries of the source, which are not always exact repeats. Equal entries are not always repeated. ± gives the expanded uncertainty stated by the source.

Assays:
[1] = Molar enthalpy of transition or fusion; settings: Crystal; DSC
[2] = molar enthalpy of vaporization or sublimation; settings: 298.15 K; Crystal; Static calorimetry
[3] = Crystal; for vapor or sublimation pressure: Calculated from knudsen effusion weight loss; for Normal melting temperature: DTA

O=[N+]([O-])c1ccc2c(c1)Cc1ccccc1-2 [2-nitro-9H-fluorene]
Settings | Molar enthalpy of transition or fusion [kJ/mol] | Normal melting temperature [°C] | molar enthalpy [kJ/mol]
[1] | 24.8 ± 0.56 | – | –
[2] | – | – | 114 ± 2.5
[3] | – | 156.74 ± 0.71 | –

[3]
Settings | vapor or sublimation pressure
357.16 K | 9e-05 ± 1e-05 kPa and 9.2e-05 ± 1e-05 kPa
359.13 K | 0.000115 ± 1.2e-05 kPa and 0.000114 ± 1.2e-05 kPa and 0.000111 ± 1.2e-05 kPa
361.11 K | 0.000141 ± 1.5e-05 kPa and 0.000139 ± 1.5e-05 kPa and 0.00014 ± 1.5e-05 kPa
363.16 K | 0.000172 ± 1.8e-05 kPa and 0.00017 ± 1.8e-05 kPa
365.14 K | 0.000217 ± 2.3e-05 kPa and 0.000209 ± 2.2e-05 kPa and 0.000213 ± 2.3e-05 kPa
367.11 K | 0.000261 ± 2.8e-05 kPa and 0.000258 ± 2.7e-05 kPa
369.16 K | 0.000315 ± 3.3e-05 kPa and 0.000322 ± 3.4e-05 kPa
371.13 K | 0.000398 ± 4.2e-05 kPa and 0.000377 ± 4e-05 kPa and 0.000392 ± 4.2e-05 kPa
373.1 K | 0.000478 ± 5.1e-05 kPa and 0.000472 ± 5e-05 kPa and 0.000474 ± 5e-05 kPa
375.15 K | 0.000565 ± 6e-05 kPa and 0.000561 ± 6e-05 kPa and 0.000578 ± 6.1e-05 kPa
377.14 K | 0.000696 ± 7.4e-05 kPa and 0.000707 ± 7.5e-05 kPa and 0.000678 ± 7.2e-05 kPa
379.12 K | 0.000839 ± 8.9e-05 kPa and 0.000844 ± 9e-05 kPa and 0.000829 ± 8.8e-05 kPa

Nc1ccc2c(c1)Cc1ccccc1-2 [2-aminofluorene]
Settings | Molar enthalpy of transition or fusion [kJ/mol] | Normal melting temperature [°C] | molar enthalpy [kJ/mol]
[1] | 23.8 ± 0.54 | – | –
[2] | – | – | 110 ± 1.8
[3] | – | 127.79 ± 0.39 | –

[3]
Settings | vapor or sublimation pressure
345.16 K | 0.000121 ± 1.3e-05 kPa and 0.00012 ± 1.3e-05 kPa and 0.000118 ± 1.3e-05 kPa
347.13 K | 0.000155 ± 1.6e-05 kPa and 0.000154 ± 1.6e-05 kPa and 0.000148 ± 1.6e-05 kPa
349.17 K | 0.000189 ± 2e-05 kPa and 0.000182 ± 1.9e-05 kPa and 0.00019 ± 2e-05 kPa
351.15 K | 0.000238 ± 2.5e-05 kPa and 0.000226 ± 2.4e-05 kPa
353.1 K | 0.000286 ± 3e-05 kPa and 0.000283 ± 3e-05 kPa and 0.000291 ± 3.1e-05 kPa
355.17 K | 0.00035 ± 3.7e-05 kPa and 0.000348 ± 3.7e-05 kPa and 0.000362 ± 3.8e-05 kPa
357.13 K | 0.000447 ± 4.7e-05 kPa and 0.000436 ± 4.6e-05 kPa and 0.000432 ± 4.6e-05 kPa
359.16 K | 0.000546 ± 5.8e-05 kPa and 0.000522 ± 5.5e-05 kPa and 0.000551 ± 5.8e-05 kPa
361.13 K | 0.000675 ± 7.2e-05 kPa and 0.000647 ± 6.9e-05 kPa and 0.000664 ± 7e-05 kPa
363.1 K | 0.000811 ± 8.6e-05 kPa and 0.000789 ± 8.4e-05 kPa and 0.000805 ± 8.5e-05 kPa
365.09 K | 0.000994 ± 0.00011 kPa and 0.000997 ± 0.00011 kPa and 0.000981 ± 0.0001 kPa
